The assay in a line: In vitro cytotoxicity in BALB/c3T3 mouse embryo fibroblasts. To be noted: BALB/c3T3, read-out: LC50.

The structures appear in SMILES notation.

On to `O=P1(N(CCCl)CCCl)NCCCO1` (stereo unspecified) [CYCLOPHOSPHAMIDE ANHYDROUS], for which the CC50 was 37.6 µM.

The values above are taken from ChEMBL document CHEMBL1125916 (1991).
